{"source": "patent US20220395539A1", "about": "“TRADITIONAL CHINESE MEDICINE COMPOSITION FOR TREATING PSORIASIS, PREPARATION METHOD THEREFOR AND USE THEREOF” (priority 2019, published 2022)", "tested_on": "mice psoriasis-like skin lesion model induced by imiquimod", "assay": "mice psoriasis-like skin lesion model induced by imiquimod", "assay_type": "in vivo, C57BL/6 mice", "parameters": "Pathological score Epidermal cell keratinization / Pathological score Dermal thickness / Pathological score Total score: scale not given here", "settings": "methotrexate 1 mg/kg", "protocol": "II. Pharmacodynamic Experiment of the Medicine Composition of the Present Application on Mice Psoriasis-Like Skin Lesion Model Induced by Imiquimod. Researching subjects: […] (2015000562136). The mice were fed with standard diet and the animal room was kept at the temperature of 23±2° C. and the humidity of 40% to 70%. […] The medium-dosage group of 9-ingredient macules-eliminating prescription: clinical equivalent dose. The low-dosage group of 9-ingredient macules-eliminating prescription: the dosage in the low-dosage group was ¼ of that in the high-dosage group. [table] Modeling method and treatment: […] Clinical symptoms: observe any clinical symptoms of each animal at the beginning and during the experiment. Any abnormal response should be recorded. […] PASI method: photos of the skin lesions were taken every day, and the erythema, scales and infiltration thickening degree at the skin lesions were scored, and the three scores were added up to obtain the total scores. […] End of experiment: after the experiment, the animals were sacrificed by CO2 deep anesthesia, and the corresponding tissues were collected. Statistics of data: the experimental data are expressed by Mean±SD, and the data between two groups are tested by T test, P<0.05 is considered as significant difference.", "key": {"[1]": {"settings": "Yujinyinxie tablet 0.72 g/kg, i.g. Qd"}, "[2]": {"settings": "Yujinyinxie tablet 0.72 g/kg, i.g. Qd 7 days"}}}
{"compound": "CN(Cc1cnc2nc(N)nc(N)c2n1)c1ccc(C(=O)N[C@@H](CCC(=O)O)C(=O)O)cc1", "note": "[Methotrexate, methotrexate]", "values": [{"measurement": "effect on the weight compared with the model group", "setting": "gavage 7 days, 9-ingredient 11.24, 5.62 and 2.81 g extract/kg", "result": "reduced the weight"}, {"measurement": "BW Day l", "setting": "[1]", "result": "20.29 ± 0.68", "unit": "g"}, {"measurement": "Severity index Day 4 (total score of skin lesion, PASI method)", "setting": "[1]", "result": "1.65 ± 0.58"}, {"measurement": "Severity index Day 5 (total score of skin lesion, PASI method)", "setting": "[1]", "result": "2.20 ± 0.48"}, {"measurement": "Severity index Day 6 (total score of skin lesion, PASI method)", "setting": "[1]", "result": "1.90 ± 0.39"}, {"measurement": "Severity index Day 7 (total score of skin lesion, PASI method)", "setting": "[1]", "result": "3.60 ± 0.63"}, {"measurement": "BW Day 8", "setting": "[2]", "result": "17.99 ± 2.71", "unit": "g"}, {"measurement": "Pathological score Dermal inflammatory cells infiltration degree", "setting": "[2]", "result": "1.10 ± 0.32,"}, {"measurement": "Pathological score Dermal thickness", "setting": "[2]", "result": "1.50 ± 0.53"}, {"measurement": "Pathological score Epidermal cell keratinization", "setting": "[2]", "result": "1.60 ± 0.84"}, {"measurement": "Pathological score Epidermal thickness", "setting": "[2]", "result": "1.60 ± 0.52,"}, {"measurement": "Pathological score Total score", "setting": "[2]", "result": "5.80 ± 1.14"}, {"measurement": "Severity index Day 8 (total score of skin lesion, PASI method)", "setting": "[2]", "result": "3.05 ± 1.82"}]}
